{"source": "patent US5466675A", "about": "“Immunological activity of rhamnolipids” (priority 1992, dated 1995)", "key": {"[1]": {"system": "rat platelet rich plasma", "assay": "collagen induced platelet aggregation", "type": "cell-based", "conditions": "0.1 mg/ml", "protocol": "Collagen induced platelet aggregation in rat platelet rich plasma was not affected by rhamnolipid (II) at 0.1 mg/ml."}, "[2]": {"system": "sheep red blood cell (SRBC) hemagglutination", "assay": "immunostimulation (humoral): sheep red blood cell (SRBC) hemagglutination", "type": "in vivo, mouse (ICR, female)", "protocol": "Groups of 6 mice were sensitized by the IV injection of 0.2 ml of a 2% SRBC suspension. On the 9th day following sensitization, blood samples were withdrawn from the orbital sinus and equal parts of complement inactivated serum from the group of 6 mice were pooled to yield a single 0.25 ml sample. Serial 2-fold dilutions were then carried out 10 times in the presence of added complement. […] Serum titers of less than 16 or greater than 128 are considered significant and indicate possible immunosuppressant and immunostimulant activity, respectively.\nFor immunostimulant activity, test substance or vehicle was administered i.p. to groups of mice for 3 consecutive days, and sensitized to SRBCs 2 hours after the third (last) injection. For immunosuppressant activity, test substance or vehicle was administered i.p. to groups of mice for 3 consecutive days beginning 2 hours after sensitization to SRBCs."}, "[3]": {"system": "mice C57B1/6", "assay": "range-finding study phase (five doses per day)"}, "[4]": {"system": "seborhoic dermatitis", "assay": "clinical treatment of seborhoic dermatitis", "type": "in vivo, human", "conditions": "one patient", "protocol": "17 patients, 11 men and 6 women, were treated with rhamnolipid (II). Among these, 12 patients were suffering from Psoriasis, 2 from Neurodermitis, 1 from Lichen ruber planus, 1 from Serborhoic dermatitis and one from Dermatitis circumscripta unilocularis eczematoides."}, "[5]": {"molecular_target": "papain (Carica papaya, UniProt P00784)", "sequence (P00784 134-345)": "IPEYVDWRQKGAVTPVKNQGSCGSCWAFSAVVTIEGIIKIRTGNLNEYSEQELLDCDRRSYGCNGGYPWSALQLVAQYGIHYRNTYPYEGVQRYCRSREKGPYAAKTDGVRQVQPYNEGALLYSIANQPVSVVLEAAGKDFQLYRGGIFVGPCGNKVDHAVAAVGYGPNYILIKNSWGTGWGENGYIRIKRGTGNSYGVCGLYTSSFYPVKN", "assay": "enzyme inhibition, papain", "type": "biochemical", "protocol": "(§1) Rhamnolipid (II) was tested in vitro against a wide array of enzymes.\n(§2) All enzyme assays were done spectrophotometrically by computer linked automatic microplate reader (Labsystem Multiskan) and Diode Array spectrophotometer (Perkin Elmer)."}, "[6]": {"system": "semliki forest virus", "assay": "effect on viruses, semliki forest", "type": "cell-based", "conditions": "concentrations ≤100 ug/ml", "protocol": "Tests were performed according to D. A. Vanden Berghe et al., Inst. Pasteur 84,101 (1986). Rhamnolipid (II) was toxic for VERO cells in concentrations ≥200 ug/ml, and cytotoxic on MT4 cells in concentrations >169.40 ug/ml."}, "[7]": {"system": "beta-galactosidase", "assay": "enzyme inhibition, beta-galactosidase", "type": "biochemical", "protocol": "as §1\nThe following enzymes were inhibited at the various rhamnolipid concentrations indicated:\nas §2"}, "[8]": {"system": "Pseudomonas aeruginosa", "assay": "minimum inhibitory concentration, Pseudomonas aeruginosa", "type": "cell-based", "conditions": "in tested medium", "excerpt": "The Minimum inhibitory concentration (MIC) of Rhamnolipid II for Candida albicans, Escherichia coli, Staphylococcus aureus and Pseudomonas aeruginosa was >0.5% in tested medium."}, "[9]": {"system": "CHO cells", "type": "cell-based", "protocol": "After 16h incubation of CHO cells with rhamnolipid, the number of micronuclei inside certain binuclear cells increased up to 4."}, "[10]": {"system": "oxazolone-induced delayed type hypersensitivity", "assay": "immunosuppression (cellular): oxazolone-induced delayed type hypersensitivity", "type": "in vivo, mouse (ICR, female)", "conditions": "for Swelling (R -L) / ear thickness, Left Ear (No Oxa.) / ear thickness, Right Ear (24 hrs Oxa.): X +/- SEM", "protocol": "The shaved abdominal surface of groups of 5 mice were sensitized by application of 0.1 ml of 5% oxazolone. The test substance was administered i.p after 1 hour and then daily for 5 consecutive doses. After an additional 4 days, the animals were challenged by application of 25 ul of 5% oxazolone to the right ear. Twenty-four hours later, ear thickness was measured with a Dyer Model micrometer gauge.\nA 50 percent or greater decrease in drug-treated versus control animals is considered significant immunosuppressant activity."}, "[11]": {"conditions": "five doses per day, intraperitoneal"}}}
{"smiles": "CCCCCCCC(CC(=O)O)OC(=O)CC(CCCCCCC)O[C@@H]1O[C@@H](C)[C@H](O)[C@@H](O)[C@H]1O[C@@H]1O[C@@H](C)[C@H](O)[C@@H](O)[C@H]1O", "note": "(stereo partly drawn) [Rhamnolipid (II), (alpha-L-rhamnopyranosyl-(1,2)alpha-L-rhamnopyranosyl)-3-hydroxydecanoyl-3-hydroxydecanoic acid]", "values": [{"measurement": "collagen induced platelet aggregation", "setting": "[1]", "value": "not affected"}, {"measurement": "SERUM TITER (Reciprocal Serum Dilution)", "setting": "[2]; IP 0.1 × 3 mg/kg", "value": 64}, {"measurement": "SERUM TITER (Reciprocal Serum Dilution)", "setting": "[2]; IP 1 × 3 mg/kg", "value": 64}, {"measurement": "SERUM TITER (Reciprocal Serum Dilution)", "setting": "[2]; IP 10 × 3 mg/kg", "value": 128}, {"measurement": "SERUM TITER (Reciprocal Serum Dilution)", "setting": "[2]; IP 100 × 3 mg/kg", "value": 8}, {"measurement": "died on Day 3", "setting": "[2]; IP 100 × 3 mg/kg", "value": "1/6"}, {"measurement": "five dose toxicity", "setting": "[3]; [11]", "value": 5, "unit": "mg/kg"}, {"measurement": "lower bracket dose (LBD)", "setting": "[3]; [11]", "value": 45, "unit": "mg/kg"}, {"measurement": "upper bracket dose (UBD)", "setting": "[3]; [11]", "value": 125, "unit": "mg/kg"}, {"measurement": "difference between rhamnolipid (II) and control", "setting": "[3]; fourth day after application", "value": "no statistical differences"}, {"measurement": "cure", "setting": "[4]", "value": "completely cured"}, {"measurement": "effect on enzyme", "setting": "[5]", "value": "no effect"}, {"measurement": "antiviral activity", "setting": "[6]", "value": "no activity"}, {"measurement": "concentration at which the enzyme was inhibited", "setting": "[7]", "value": 100, "unit": "µg/mL"}, {"measurement": "Minimum inhibitory concentration (MIC)", "setting": "[8]", "value": "> 0.5", "unit": "%"}, {"measurement": "micronuclei numbers", "setting": "[9]", "value": "increased compared to the parallel control specimens"}, {"measurement": "number of micronuclei inside certain binuclear cells", "setting": "[9]", "value": "up to 4"}, {"measurement": "Swelling Inh. %", "setting": "[10]; IP 0.1 × 5 mg/kg", "value": 16, "unit": "%"}, {"measurement": "Swelling (R -L)", "setting": "[10]; IP 0.1 × 5 mg/kg", "value": "19.6 +/- 2.9 × 0.01 mm"}, {"measurement": "ear thickness, Left Ear (No Oxa.)", "setting": "[10]; IP 0.1 × 5 mg/kg", "value": "21.0 +/- 0.8 × 0.01 mm"}, {"measurement": "ear thickness, Right Ear (24 hrs Oxa.)", "setting": "[10]; IP 0.1 × 5 mg/kg", "value": "40.6 +/- 3.0 × 0.01 mm"}, {"measurement": "Swelling Inh. %", "setting": "[10]; IP 1 × 5 mg/kg", "value": 22, "unit": "%"}, {"measurement": "Swelling (R -L)", "setting": "[10]; IP 1 × 5 mg/kg", "value": "20.2 +/- 1.7 × 0.01 mm"}, {"measurement": "ear thickness, Left Ear (No Oxa.)", "setting": "[10]; IP 1 × 5 mg/kg", "value": "21.0 +/- 0.5 × 0.01 mm"}, {"measurement": "ear thickness, Right Ear (24 hrs Oxa.)", "setting": "[10]; IP 1 × 5 mg/kg", "value": "41.2 +/- 1.8 × 0.01 mm"}, {"measurement": "Swelling Inh. %", "setting": "[10]; IP 10 × 5 mg/kg", "value": 19, "unit": "%"}, {"measurement": "Swelling (R -L)", "setting": "[10]; IP 10 × 5 mg/kg", "value": "20.8 +/- 1.2 × 0.01 mm"}, {"measurement": "ear thickness, Left Ear (No Oxa.)", "setting": "[10]; IP 10 × 5 mg/kg", "value": "20.8 +/- 0.7 × 0.01 mm"}, {"measurement": "ear thickness, Right Ear (24 hrs Oxa.)", "setting": "[10]; IP 10 × 5 mg/kg", "value": "41.6 +/- 1.2 × 0.01 mm"}, {"measurement": "Swelling Inh. %", "setting": "[10]; IP 100 × 5 mg/kg", "value": 26, "unit": "%"}, {"measurement": "Swelling (R -L)", "setting": "[10]; IP 100 × 5 mg/kg", "value": "19.2 +/- 0.6 × 0.01 mm"}, {"measurement": "ear thickness, Left Ear (No Oxa.)", "setting": "[10]; IP 100 × 5 mg/kg", "value": "19.0 +/- 0.9 × 0.01 mm"}]}
